Assays:
[1] = Kinetic thiol consumption assay with model thiol glutathione; type: physicochemical; parameters: Rate constant with glutathione (k(GSH)): unit not given here; settings: for Rate constant with glutathione (k(GSH)): 500 μM ligand, 5 μM thiol, phosphate buffer pH 8; for Rate constant with Glutathione: Protein: Glutathione, cysteine position NA, in h-1
Method in brief: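 GSH 5 μM, degassed phosphate buffer pH 8, TCEP beads 2% v/v; acrylamide added; RT, 1 h; fluorescence ex/em 380/470 nm; normalized to DMSO/thiol control; k from first-order exponential decay fit.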

[2] = target: T1, Cdk2(S181C) (C177A) (Homo sapiens, UniProt P24941, C177A/S181C); test: Kinetic thiol consumption assay with Cdk2 mutant S181C; type: binding; parameters: key to Rate enhancement, Cdk2 S181C: rate constant with Cdk2 ÷ rate constant with model thiol (fold); settings: additional mutation C177A; for Rate constant with Cdk2 S181C: Protein: Cdk2, cysteine position S181C, in h^-1
T1 construct: poly-histidine; made in house; host or cells: E. coli
Method in brief: (§1)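 5 μM thiol, degassed phosphate pH 8, 2% v/v immobilized TCEP beads; 1 h RT; fluorescence ex 380/em 470 nm; normalized vs DMSO/thiol-only; first-order exponential decay fit → rate constant; Cdk2 k / model-thiol k = rate enhancement per acrylamide.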

[3] = target: T2, Cdk2(N272C) (C177A) (Homo sapiens, UniProt P24941, C177A/N272C); test: Kinetic thiol consumption assay with Cdk2 mutant N272C; type: binding; parameters: key to Rate enhancement, Cdk2 N272: rate constant with Cdk2 ÷ rate constant with model thiol (fold); settings: for Rate enhancement, Cdk2 N272: Cdk2 N272, additional mutation C177A; for Rate constant with Cdk2 N272C: Protein: Cdk2, cysteine position N272C, additional mutation C177A, in h^-1
T2 construct: poly-histidine; made in house; host or cells: E. coli
Method in brief: as §1

[4] = target: T3, Cdk2(H71C) (C177A) (Homo sapiens, UniProt P24941, C177A/H71C); test: Kinetic thiol consumption assay with Cdk2 mutant H71C; type: binding; parameters: key to Rate enhancement, Cdk2 H71C: rate constant with Cdk2 ÷ rate constant with model thiol (fold); settings: additional mutation C177A; for Rate constant with Cdk2 H71C: Protein: Cdk2, cysteine position H71C, in h^-1
T3 construct: poly-histidine; made in house; host or cells: E. coli
Method in brief: as §1

[5] = target: T4, Cdk2[C177A, F80C, K278C] (Homo sapiens, UniProt P24941, C177A/F80C/K278C); test: Kinetic thiol consumption assay with mutant Cdk2 as model thiol; type: binding; parameters: unit not given here; settings: 500 μM ligand, 5 μM thiol, phosphate buffer pH 8
T4 construct: poly-histidine; made in house; host or cells: E. coli
Method in brief: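 Model thiol: His-tagged human Cdk2 C177A/F80C/K278C (two engineered surface cysteines), E. coli-expressed, 5 μM in degassed phosphate buffer pH 8 with immobilized TCEP beads (2% v/v). Fluorescence (ex/em 380/470 nm) followed over time at room temperature, normalized to DMSO/thiol control. First-order decay fit gives rate constants.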

[6] = target: T5, Cdk2(C177A, F80C) (Homo sapiens, UniProt P24941, C177A/F80C); test: Kinetic thiol consumption assay with Cdk2 mutant F80C, incl. kobs versus concentration (Kd, k2); type: binding; parameters: key to Rate enhancement, Cdk2 F80C: Cdk2 rate constant divided by model-thiol rate constant; settings: additional mutation C177A; for Rate constant with Cdk2 F80C: Protein: Cdk2, cysteine position F80C, in h^-1
T5 construct: poly-histidine; made in house; host or cells: E. coli
Method in brief: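 His-tagged Cdk2(C177A/F80C) from E. coli or model thiol, 5 μM in degassed phosphate buffer pH 8 with TCEP beads, reacted with acrylamide ligands; fluorescence (ex/em 380/470 nm) normalized to DMSO control and fitted to first-order decay for kobs. Kd and k2 obtained from hyperbolic fit of kobs versus ligand concentration.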

[7] = target: T6, Cdk2(T182C) (C177A) (Homo sapiens, UniProt P24941, C177A/T182C); test: Kinetic thiol consumption assay with Cdk2 mutant T182C; type: binding; parameters: key to Rate enhancement, Cdk2 T182C: rate constant with Cdk2 ÷ rate constant with model thiol (fold); settings: additional mutation C177A; for Rate constant with Cdk2 T182C: Protein: Cdk2, cysteine position T182C, in h^-1
T6 construct: poly-histidine; made in house; host or cells: E. coli
Method in brief: as §1

[8] = target: T7, Cdk2(R122C) (C177A) (Homo sapiens, UniProt P24941, C177A/R122C); test: Kinetic thiol consumption assay with Cdk2 mutant R122C; type: binding; parameters: key to Rate enhancement, Cdk2 R122C: rate constant with Cdk2 ÷ rate constant with model thiol (fold); settings: additional mutation C177A; for Rate constant with Cdk2 R122C: Protein: Cdk2, cysteine position R122C, in h-1
T7 construct: poly-histidine; made in house; host or cells: E. coli
Method in brief: as §1

[9] = target: T8, human cyclin-dependent kinase 2 (Cdk2) (Homo sapiens, UniProt P24941); test: Kinetic thiol consumption assay with wild type Cdk2 (C177); type: binding; parameters: key to Rate enhancement, Cdk2 WT: k(Cdk2) divided by k(model thiol); Rate constant with Cdk2 (k(Cdk2)): unit not given here; settings: for Rate constant with Cdk2 (k(Cdk2)): 500 μM ligand, 5 μM thiol, phosphate buffer pH 8; for Rate enhancement, Cdk2 WT: no additional mutations; for Rate constant with Cdk2 WT: Protein: Cdk2, cysteine position WT, in h^-1; for k(Cdk2)/k(Cdk2_mut) rate enhancement: model thiol Cdk2[C177A, F80C, K278C]; for k(Cdk2)/k(GSH) rate enhancement: model thiol glutathione; for hit classification, Example 2: significant rate enhancement against both model thiols (GSH and mutant Cdk2)
T8 construct: poly-histidine; made in house; host or cells: E. coli
Method in brief: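 His-tagged human Cdk2 (single surface cysteine C177), expressed in E. coli, or a model thiol at 5 μM in degassed phosphate buffer pH 8 was pre-treated with immobilized TCEP beads (2% v/v) before acrylamide addition. Fluorescence (ex/em 380/470 nm) was read after 1 h at room temperature, normalized to DMSO/thiol-only control and plotted versus time.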

[10] = target: T9, Cdk2(S276C) (C177A) (Homo sapiens, UniProt P24941, C177A/S276C); test: Kinetic thiol consumption assay with Cdk2 mutant S276C; type: binding; parameters: key to Rate enhancement, Cdk2 S276C: rate constant with Cdk2 ÷ rate constant with model thiol (fold); settings: additional mutation C177A; for Rate constant with Cdk2 S276C: Protein: Cdk2, cysteine position S276C, in h^-1
T9 construct: poly-histidine; made in house; host or cells: E. coli
Method in brief: as §1

For `C=CC(=O)N1CCC(NC(=O)C2CCC2)C1` (stereo not shown) [CA-088], the “Rate constant with glutathione (k(GSH))” value [1] was 0.01352, the “Rate constant with Glutathione” value [1] was 0.01947 and the “Rate enhancement, Cdk2 S181C” value [2] was 0.1904. For the same compound, the “Rate constant with Cdk2 S181C” value [2] was 0.003708, the “Rate enhancement, Cdk2 N272” value [3] was 0.5609 and the “Rate constant with Cdk2 N272C” value [3] was 0.01092. The “Rate enhancement, Cdk2 H71C” value [4] was 0, the “Rate constant with Cdk2[C177A, F80C, K278C] (k(Cdk2_mut))” value (shortened to “Rate constant … (k(Cdk2_mut))”) [5] was 0.00177 and the “Rate enhancement, Cdk2 F80C” value [6] was 0.1205. The “Rate constant with Cdk2 F80C” value [6] was 0.002347, the “Rate enhancement, Cdk2 T182C” value [7] was 0.9096 and the “Rate constant with Cdk2 T182C” value [7] was 0.01771. For the same compound, the “Rate enhancement, Cdk2 R122C” value [8] was 0.4684, the “Rate constant with Cdk2 R122C” value [8] was 0.009119 and the “Rate constant with Cdk2 (k(Cdk2))” value [9] was 0.00595. The “Rate enhancement, Cdk2 WT” value [9] was 0.3054, the “Rate constant with Cdk2 WT” value [9] was 0.005947 and the “k(Cdk2)/k(Cdk2_mut) rate enhancement” value [9] was 3.366. The “k(Cdk2)/k(GSH) rate enhancement” value [9] was 0.4399, the “Rate enhancement, Cdk2 S276C” value [10] was 0.4395 and the “Rate constant with Cdk2 S276C” value [10] was 0.008557.
With `C=CC(=O)N1CC(CCN2CCCC2=O)c2ccccc21` (stereo not shown) [CA-089] the “Rate constant with glutathione (k(GSH))” value [1] was 0.04608, the “Rate constant with Glutathione” value [1] was 0.04691 and the “Rate enhancement, Cdk2 S181C” value [2] was 0.5754. The “Rate constant with Cdk2 S181C” value [2] was 0.02699, the “Rate enhancement, Cdk2 N272” value [3] was 4.344 and the “Rate constant with Cdk2 N272C” value [3] was 0.2038. For the same compound, the “Rate enhancement, Cdk2 H71C” value [4] was 3.475, the “Rate constant with Cdk2 H71C” value [4] was 0.163 and the “Rate constant … (k(Cdk2_mut))” value [5] was 0.02054. For the same compound, the “Rate enhancement, Cdk2 F80C” value [6] was 1.909, the “Rate constant with Cdk2 F80C” value [6] was 0.08953 and the “Rate enhancement, Cdk2 T182C” value [7] was 16.71. The “Rate constant with Cdk2 T182C” value [7] was 0.784, the “Rate enhancement, Cdk2 R122C” value [8] was 0.4622 and the “Rate constant with Cdk2 R122C” value [8] was 0.02168. The “Rate constant with Cdk2 (k(Cdk2))” value [9] was 0.2034, the “Rate enhancement, Cdk2 WT” value [9] was 4.336 and the “Rate constant with Cdk2 WT” value [9] was 0.2034. The “k(Cdk2)/k(Cdk2_mut) rate enhancement” value [9] was 9.903, the “k(Cdk2)/k(GSH) rate enhancement” value [9] was 4.414 and the “hit classification, Example 2” value [9] was “hits”. The “Rate enhancement, Cdk2 S276C” value [10] was 3.061 and the “Rate constant with Cdk2 S276C” value [10] was 0.1436.
In the case of `C=CC(=O)N1CCn2c(Cc3ccccc3)nnc2C1` [CA-092], the “Rate constant with glutathione (k(GSH))” value [1] is reported as 0.0817, the “Rate constant with Glutathione” value [1] is reported as 0.08356 and the “Rate enhancement, Cdk2 S181C” value [2] is reported as 0.9146. For the same compound, the “Rate constant with Cdk2 S181C” value [2] was 0.07642, the “Rate enhancement, Cdk2 N272” value [3] was 7.163 and the “Rate constant with Cdk2 N272C” value [3] was 0.5985. The “Rate enhancement, Cdk2 H71C” value [4] was 2.689, the “Rate constant with Cdk2 H71C” value [4] was 0.2247 and the “Rate constant … (k(Cdk2_mut))” value [5] was 0.01236. For the same compound, the “Rate enhancement, Cdk2 F80C” value [6] was 0.1058, the “Rate constant with Cdk2 F80C” value [6] was 0.008842 and the “Rate enhancement, Cdk2 T182C” value [7] was 6.483. The “Rate constant with Cdk2 T182C” value [7] was 0.5417, the “Rate enhancement, Cdk2 R122C” value [8] was 2.269 and the “Rate constant with Cdk2 R122C” value [8] was 0.1896. The “Rate constant with Cdk2 (k(Cdk2))” value [9] was 0.2634, the “Rate enhancement, Cdk2 WT” value [9] was 3.152 and the “Rate constant with Cdk2 WT” value [9] was 0.2634. For the same compound, the “k(Cdk2)/k(Cdk2_mut) rate enhancement” value [9] was 21.31, the “k(Cdk2)/k(GSH) rate enhancement” value [9] was 3.224 and the “hit classification, Example 2” value [9] was “hits”. The “Rate enhancement, Cdk2 S276C” value [10] was 6.528 and the “Rate constant with Cdk2 S276C” value [10] was 0.5455.

Source: patent publication US11415579B2, “Assay for measuring a rate of reaction between a target and a ligand candidate” (Imperial College Innovations Ltd., priority 2016, dated 2022)
